This data set is described as follows: in vitro. The note with it: rat, gh3-tre-luc cells.

Where a name gives a salt, the structure may show the parent alone.

Regarding `C=C(C)C(=O)OC(C)CO` (stereo not shown) [Hydroxypropyl methacrylate], the half-maximal cytotoxic concentration (CC50) (in general, the concentration at which the toxic effect on the cells reaches its halfway point) at 24 h (AC50 (uM) modified / 1000) was > 90 µM.
Still for that read-out and setting: next, `O=S(=O)(c1ccccc1)c1ccc(Cl)cc1` [4-Chlorophenyl phenyl sulfone]: > 90 µM; `CCOC(=O)Oc1c(OC)cc(C(=O)O[C@@H]2C[C@@H]3CN4CCc5c([nH]c6cc(OC)ccc56)[C@H]4C[C@@H]3[C@H](C(=O)OC)[C@H]2OC)cc1OC` [Syrosingopine]: > 20 µM; `Cc1ccc(S(=O)(=O)N=C=O)cc1` [p-Toluenesulphonyl isocyanate]: > 90 µM.
With `O=C(O)COc1nc(Cl)c(Cl)cc1Cl` [Triclopyr], the CC50 at 24 h (AC50 (uM) modified / 1000) was > 90 µM.
For `COP(=O)(OC)OC=C(Cl)Cl` [Dichlorvos], the 50% cytotoxic concentration (CC50) at 24 h reads like this: (AC50 (uM) modified / 1000, Tox21_110001=Tox21_111052, viability, 1 nM T3 present, 24 h) > 50 µM; (AC50 (uM) modified / 1000, Tox21_110001=Tox21_201617, viability, 1 nM T3 present, 24 h) > 90 µM.
With `CCCCCCCCOc1ccccc1C(=O)Nc1ccc(C(=O)OCC[N+](C)(CC)CC)cc1` [Otilonium bromide], the CC50 at 24 h (AC50 (uM) modified / 1000) was 22.8 µM.
Take `ClC1=C(Cl)C2(Cl)C(CBr)CC1(Cl)C2(Cl)Cl` (stereo not shown) [Bromociclen]: the CC50 at 24 h runs as follows: (AC50 (uM) modified / 1000, Tox21_110001=Tox21_112345, viability, 1 nM T3 present, 24 h) 22.4 µM; (AC50 (uM) modified / 1000, Tox21_110001=Tox21_301856, viability, 1 nM T3 present, 24 h) 36.9 µM.
As to `Cc1occc(=O)c1OC(=O)C(C)C` [Maltol isobutyrate], the cytotoxic concentration (CC50) at 24 h (AC50 (uM) modified / 1000) was > 90 µM.
Consider `CN(C)c1ccc(N=Nc2ccccc2)cc1` [4-(Dimethylamino)azobenzene], for which the CC50 at 24 h (AC50 (uM) modified / 1000, Tox21_110001=Tox21_200757, viability, 1 nM T3 present, 24 h) is > 90 µM.
In the case of `O=C1O[C@H]([C@@H](O)CO)C(O)=C1O` [L-Ascorbic acid], the CC50 at 24 h (AC50 (uM) modified / 1000) is > 90 µM.
Same read-out and setting: as for `C1COC1` [1,3-Propylene oxide], the figure is > 90 µM.
As to `COC(=O)Nc1cccc(OC(=O)Nc2cccc(C)c2)c1` [Phenmedipham], where the note is “AC50 (uM) modified / 1000, Tox21_110001=Tox21_201295, viability, 1 nM T3 present, 24 h”, the CC50 at 24 h is > 90 µM.
Consider `COc1ccccc1NC(=O)c1cc2ccccc2cc1O` [3-Hydroxy-2-naphthoic o-anisidide], for which the CC50 at 24 h (AC50 (uM) modified / 1000) was > 90 µM.
As to `CC1CCCC1` [Methylcyclopentane], the CC50 at 24 h (AC50 (uM) modified / 1000) is > 90 µM.
As for `CNC(=O)Oc1cccc(C(C)C)c1` [m-Cumenyl methylcarbamate], the CC50 at 24 h (AC50 (uM) modified / 1000) was > 90 µM.
Regarding `c1ccc(SCCSc2ccccc2)cc1` [1,2-Bis(phenylthio)ethane], for the setting “AC50 (uM) modified / 1000”, the half-maximal cytotoxic concentration (CC50) at 24 h was > 90 µM.
For `CCN1CN(CC)CN(CC)C1` [1,3,5-Triethylhexahydro-s-triazine], the half-maximal cytotoxic concentration (CC50) at 24 h (AC50 (uM) modified / 1000) is > 90 µM.
The same measure, in the same setting: as for `CC(C)CC(C)CC(O)CC(C)C` (stereo not shown) [2,6,8-Trimethyl-4-nonanol], the figure is > 90 µM; as for `CC(C)(C)c1ccc(CN2CCN(C(c3ccccc3)c3ccc(Cl)cc3)CC2)cc1` (stereo not shown) [Buclizine dihydrochloride], 32.6 µM.
As to `CCC1(c2cccc(O)c2)CCCCN(C)C1` (stereo not shown) [Meptazinol hydrochloride], the CC50 at 24 h (AC50 (uM) modified / 1000, Tox21_110001=Tox21_110665, viability, 1 nM T3 present, 24 h) was > 20 µM.
Consider `CCCC(=O)c1ccccc1` [Butyrophenone], for which the CC50 at 24 h (AC50 (uM) modified / 1000) was > 90 µM.
Same read-out and setting: as for `Cc1ccc2oc(=O)ccc2c1` [6-Methyl coumarin], the figure is > 90 µM.
Take `CCN(C)C(=O)Oc1cccc([C@H](C)N(C)C)c1` [Rivastigmine tartrate]: the 50% cytotoxic concentration (CC50) at 24 h (AC50 (uM) modified / 1000) was > 50 µM.
As to `CCCCCCC1CCCC(=O)O1` (stereo not shown) [Undecanoic delta-lactone], the CC50 at 24 h (AC50 (uM) modified / 1000) was > 90 µM.
As to `C=CCn1c(=O)n(CC=C)c(=O)n(CC=C)c1=O` [Triallyl isocyanurate], where the note is “AC50 (uM) modified / 1000”, the CC50 at 24 h was > 90 µM.
As for `Cc1cccc(C)c1NC(=O)C1CCCCN1C` (stereo not shown) [Mepivicaine hydrochloride], the half-maximal cytotoxic concentration (CC50) at 24 h (AC50 (uM) modified / 1000) was > 50 µM.
In the case of `C[C@@H]1O[C@@H]1P(=O)(O)O` [Fosfomycin calcium], where the note is “AC50 (uM) modified / 1000”, the 50% cytotoxic concentration (CC50) at 24 h is > 50 µM.
Turning to `C=CCN1CC[C@]23CCCC[C@H]2[C@H]1Cc1ccc(O)cc13` [Levallorphan], the CC50 at 24 h (AC50 (uM) modified / 1000) stood at 28.6 µM.
For `CCOP(=S)(OCC)SCn1c(=O)oc2cc(Cl)ccc21` [Phosalone], the CC50 at 24 h is, setting by setting: (AC50 (uM) modified / 1000, Tox21_110001=Tox21_202294, viability, 1 nM T3 present, 24 h) > 100 µM; (AC50 (uM) modified / 1000, Tox21_110001=Tox21_300811, viability, 1 nM T3 present, 24 h) 80.4 µM.
As to `C[C@]12CC[C@H]3[C@@H](CCC4=CC(=O)CC[C@@]43C)[C@@H]1CC[C@@H]2O` [Testosterone], the CC50 at 24 h (AC50 (uM) modified / 1000, Tox21_110001=Tox21_200689, viability, 1 nM T3 present, 24 h) was > 90 µM.
For `CC1(C)C(=O)NC(=O)N1CO` [1-(Hydroxymethyl)-5,5-dimethylhydantoin], the CC50 at 24 h (AC50 (uM) modified / 1000) was > 90 µM.
With `CC(=O)C(=O)CC(C)C` [5-Methyl-2,3-hexanedione], the CC50 at 24 h (AC50 (uM) modified / 1000) is > 90 µM.
For `CC(C)Nc1nc(N)nc(Cl)n1` [Deethylatrazine], the CC50 at 24 h (AC50 (uM) modified / 1000) is > 90 µM.
Still for that read-out and setting: as for `O=[N+]([O-])c1c2ccccc2cc2ccccc12` [9-Nitroanthracene], the figure is > 90 µM; as for `Cc1ccc(C(C)c2ccc(C)c(C)c2)cc1C` [1,1-Bis(3,4-dimethylphenyl)ethane], > 90 µM; as for `Cl[C@H]1[C@H](Cl)[C@@H](Cl)[C@@H](Cl)[C@H](Cl)[C@H]1Cl` [1,2,3,4,5,6-Hexachlorocyclohexane], 45.8 µM.
The same measure, in the same setting: next, `O=[N+]([O-])c1cccc(Cl)c1Cl` [2,3-Dichloronitrobenzene]: > 90 µM; `CCC(C)c1nccnc1OC` (stereo not shown) [2-sec-Butyl-3-methoxypyrazine]: > 90 µM.
`FC(F)(F)c1ccccc1-n1ccnc1` [1-[2-(Trifluoromethyl)phenyl]-1H-imidazole]: the CC50 at 24 h (AC50 (uM) modified / 1000) was > 50 µM.
On the same count and under the same terms, as for `c1ccoc1` [Furan], the figure is > 90 µM.
Compound `CCCCCCCCCCCC[N+](C)(C)CCCS(=O)(=O)O` gave a CC50 at 24 h (AC50 (uM) modified / 1000) of 55.3 µM.
On to `Cc1ccc(C(=O)O)cc1` [4-Methylbenzoic acid], for which, where the note is “AC50 (uM) modified / 1000”, the CC50 at 24 h was > 90 µM.
Consider `CC(C)(C)C(O)/C(=C\c1ccc(Cl)cc1Cl)n1cncn1` (stereo not shown) [Diniconazole], for which, for the setting “AC50 (uM) modified / 1000”, the CC50 at 24 h came out at 73.4 µM.
For the compound `CCCCCCCCNC` [N-Methyloctan-1-amine], for the setting “AC50 (uM) modified / 1000”, the CC50 at 24 h was > 90 µM.
As for `Oc1ccc(-c2ccccc2)cc1` [4-Phenylphenol], the CC50 at 24 h is, setting by setting: (AC50 (uM) modified / 1000, Tox21_110001=Tox21_202220, viability, 1 nM T3 present, 24 h) 62.2 µM; (AC50 (uM) modified / 1000, Tox21_110001=Tox21_302734, viability, 1 nM T3 present, 24 h) > 90 µM.
Consider `Cc1c(C(=O)NCCO)[n+]([O-])c2ccccc2[n+]1[O-]` [Olaquindox], for which, for the setting “AC50 (uM) modified / 1000”, the CC50 at 24 h was > 50 µM.
For the compound `CCCCCCCCCCCCCOC(=O)CCSCCC(=O)OCCCCCCCCCCCCC` [Di(tridecyl) thiodipropionate], the CC50 at 24 h (AC50 (uM) modified / 1000) was > 20 µM.
`CCOC(=O)[C@@H](N)CS` [Ethyl L-cysteinate hydrochloride]: for the setting “AC50 (uM) modified / 1000”, the CC50 at 24 h is > 50 µM.
Take `N#Cc1cc(Br)c(O)c(Br)c1` [Bromoxynil]: the CC50 at 24 h (AC50 (uM) modified / 1000) was > 90 µM.
In the case of `O=[N+]([O-])/C=C/c1ccccc1` [(E)-beta-Nitrostyrene], the CC50 at 24 h (AC50 (uM) modified / 1000) amounted to 13.7 µM.
Consider `CCCCCCCCCCCCN(C)C` [N,N-Dimethyldodecan-1-amine], for which the CC50 at 24 h (AC50 (uM) modified / 1000) was > 90 µM.
In the case of `CCOc1ccc(NC(N)=O)cc1` [Dulcin], under “AC50 (uM) modified / 1000”, the CC50 at 24 h was > 90 µM.
Compound `CCCCCCCC[P+](CCCCCCCC)(CCCCCCCC)CCCCCCCC` [Tetraoctylphosphonium bromide] had a CC50 at 24 h (AC50 (uM) modified / 1000) of 4.22 µM.
Still for that read-out and setting: next, `O=C1c2c(O)cccc2C([C@@H]2O[C@H](CO)[C@@H](O)[C@H](O)[C@H]2O)c2cc(CO)cc(O)c21` (stereo partly shown) [Aloin]: > 50 µM.
Under “AC50 (uM) modified / 1000”, `Cc1c(-c2ccc(O)cc2)n(Cc2ccc(OCCN3CCCCCC3)cc2)c2ccc(O)cc12` [Bazedoxifene acetate] returned a CC50 at 24 h of 8.31 µM.
For the compound `O=[N+]([O-])c1ccc2[nH]ncc2c1` [5-Nitroindazole], the CC50 at 24 h (AC50 (uM) modified / 1000) was > 90 µM.
In the case of `CC(C)C[C@H]1C(=O)N2CCC[C@H]2[C@]2(O)O[C@](NC(=O)[C@@H]3C[C@@H]4c5cccc6[nH]cc(c56)C[C@H]4N(C)C3)(C(C)C)C(=O)N12` [Dihydroergocriptine], it took 39.2 µM to reach half-maximal cytotoxicity (AC50 (uM) modified / 1000, Tox21_110001=Tox21_113078, viability, 1 nM T3 present, 24 h) (CC50 at 24 h).
On to `COP(=O)(OC)O/C(=C\Cl)c1cc(Cl)c(Cl)cc1Cl` [Z-Tetrachlorvinphos], for which the 50% cytotoxic concentration (CC50) at 24 h (AC50 (uM) modified / 1000, Tox21_110001=Tox21_301751, viability, 1 nM T3 present, 24 h) was > 90 µM.
Take `CCOc1cccc(N)c1` [3-Ethoxyaniline]: the cytotoxic concentration (CC50) at 24 h (AC50 (uM) modified / 1000) was > 90 µM.
Consider `CC(=O)c1ccc2ccccc2c1` [2'-Acetonaphthone], for which, under “AC50 (uM) modified / 1000”, the CC50 at 24 h was > 90 µM.
Still for that read-out and setting: next, `O=C(O)c1cc(O)c2c(c1)C(=O)c1cccc(O)c1C2=O` [Rhein]: > 90 µM.
As for `N=c1c[n+](N2CCOCC2)[n-]o1` [3-Morpholinosydnonimine hydrochloride], the CC50 at 24 h (AC50 (uM) modified / 1000) was > 50 µM.
For the compound `CCCCCCCCCCCCCCCO` [1-Pentadecanol], the CC50 at 24 h (AC50 (uM) modified / 1000) was > 90 µM.
Same read-out and setting: as for `COC(C)(C)OC` [2,2-Dimethoxypropane], the figure is > 90 µM; as for `CC(=O)OCCOC(C)=O` [1,2-Ethanediol diacetate], > 90 µM; as for `CNCc1ccc(NC(=O)c2c[nH]c3c2C(=O)CCC3)cc1` [CP-409092], > 90 µM.
Turning to `CC1=CC=C(C(C)C)CC1` [alpha-Terpinene], the CC50 at 24 h (AC50 (uM) modified / 1000) is > 90 µM.
As for `COC(=O)CCC(=O)O` [Monomethyl succinate], where the note is “AC50 (uM) modified / 1000”, the CC50 at 24 h is > 90 µM.

The record behind these values is publication PMC6792352, “Limited Chemical Structural Diversity Found to Modulate Thyroid Hormone Receptor in the Tox21 Chemical Library” (Environmental Health Perspectives, 2019).
